The source of these data is patent publication US9790169B2, “IDO inhibitors” (BRISTOL-MYERS SQUIBB COMPANY, priority 2015, dated 2017).

Molecules are shown by their SMILES. Structures can show the parent of a compound that is named as a salt.

Sequence of human IDO1 (P14902 whole entry): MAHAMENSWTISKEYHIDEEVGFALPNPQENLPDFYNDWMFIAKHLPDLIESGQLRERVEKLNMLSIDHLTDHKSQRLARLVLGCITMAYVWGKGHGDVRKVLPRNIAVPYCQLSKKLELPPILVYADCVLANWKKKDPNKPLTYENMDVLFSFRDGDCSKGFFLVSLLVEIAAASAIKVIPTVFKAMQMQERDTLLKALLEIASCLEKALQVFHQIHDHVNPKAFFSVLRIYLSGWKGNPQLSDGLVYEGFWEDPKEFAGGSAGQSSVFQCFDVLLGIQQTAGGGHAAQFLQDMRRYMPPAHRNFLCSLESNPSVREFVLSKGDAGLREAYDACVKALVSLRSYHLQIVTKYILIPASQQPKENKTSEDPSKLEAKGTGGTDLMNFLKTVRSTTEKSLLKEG

In this assay the target is human IDO1 (Homo sapiens, UniProt P14902). In words: Assessment of human IDO-1 inhibitory activity in HEK cells (human IDO1/HEK293 cells, kynurenine read-out with Ehrlich reagent, absorbance 490 nm). Type of assay: cell-based. On the set-up: expressed in transfected cells. The conditions noted are these: HEK Human IDO-1 cellular assay. In short, it runs like this:
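Kynurenine output from stably IDO1-transfected HEK293 cells (10,000/well, phenol red-free RPMI, 10% FBS) after 20 h compound exposure at 37 °C. The reaction was stopped with 0.2% TCA and heated 30 min at 50 °C, then the supernatant was mixed with Ehrlich reagent and read at 490 nm. IC50 was set against DMSO and a 500 nM reference standard as 0 and 100% inhibition.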
As a reminder, the IC50 is the concentration that inhibits the measured activity by half. As to `CCC(CC(=O)O)c1ccc(N2C[C@@H]3C[C@H]2CN3C(=O)OC(C)(C)C)c(Nc2ccc(C)cc2)c1` (single isomer, unassigned) [Example 445], the half-maximal inhibitory concentration (IC50) is < 5 nM.
Turning to `CCC(CC(=O)O)c1ccc(N(CC(C)C)C2CCCCC2)c(Nc2ccc(Cl)c(OCC3CC3)c2)c1` (single isomer, unassigned) [Example 645, 3-(3-((4-chloro-3-(cyclopropylmethoxy)phenyl)amino)-4-(cyclohexyl (isobutyl)amino)phenyl) pentanoic acid], the concentration for half-maximal inhibition (IC50) is < 50 nM.
`COC(Cc1ccc(N(CC(C)C)C2CCCCC2)c(NC(=O)Nc2ccc(C#N)cc2F)c1)C(=O)O` (racemic) [Example 1011, 3-(3-(3-(4-Cyano-2-fluorophenyl)ureido)-4-(cyclohexyl(isobutyl)amino)phenyl)-2-methoxypropanoic acid]: the half-maximal inhibitory concentration (IC50) is < 50 nM.
For `COCC(CC(=O)O)c1ccc(N(CC(C)C)C2CCOCC2)c(NC(=O)Nc2ccc(C)cc2)c1` (single isomer, unassigned) [Example 1216, 3-(4-(Isobutyl(tetrahydro-2H-pyran-4-yl)amino)-3-(3-(p-tolyl)ureido)phenyl)-4-methoxybutanoic acid], the IC50 is < 50 nM.
Turning to `CC[C@H](CC(=O)O)c1ccc(N(CC)C2CCOCC2)c(NC(=O)Nc2ccc(OC)cc2F)c1` (single isomer, unassigned) [Example 530], the IC50 was < 5 nM.
Take `COCC(CC(=O)O)c1ccc(N(CC(C)C)C2CCCCC2)c(NC(=O)Nc2cncnc2)c1` (single isomer, unassigned) [991-1]: the concentration for half-maximal inhibition (IC50) is < 50 nM.
As for `CC[C@H](CC(=O)O)c1ccc(N(CC(C)(C)O)C2CCCCC2)c(Nc2ccc(F)cc2)c1` (single isomer, unassigned) [Example 236], the IC50 was < 50 nM.
For the compound `CCC(CC(=O)O)c1ccc(N(CC(C)C)C2CCCCC2)c(Nc2ccc(C#N)cc2)c1` (single isomer, unassigned) [Example 314, 3-(3-((4-cyanophenyl)amino)-4-(cyclohexyl (isobutyl)amino)phenyl) pentanoic acid], the half-maximal inhibitory concentration (IC50) is < 5 nM.
As for `CC[C@H](CC(=O)O)c1ccc(N(CC)C2CCOCC2)c(NC(=O)Nc2ccc(Cl)cc2F)c1` (single isomer, unassigned) [Example 526], the IC50 is < 5 nM.
Turning to `CCC(CC(=O)O)c1ccc(N(CC2CC2)C2CCOCC2)c(NC(=O)Nc2ccc(C)cc2)c1` (stereo not shown) [Example 698], the IC50 was < 50 nM.
The result for `CCOc1ncc(Nc2cc([C@H](CC)CC(=O)O)ccc2N(CC(C)(C)O)C2CCOCC2)cn1` (single isomer, unassigned) [Example 202] reads > 50 nM.
The result for `CCN(c1ccc(C(C)(C)CC(=O)O)cc1Nc1cnc(OC)nc1)C1CCOCC1` [Example 162, 3-(4-(ethyl(tetrahydro-2H-pyran-4-yl)amino)-3-((2-methoxypyrimidin-5-yl)amino)phenyl)-3-methylbutanoic acid] reads < 50 nM.
The result for `CCC(CC(=O)O)c1ccc(N2CCC[C@@H]2C(C)(C)O)c(Nc2ccc3c(c2)OC(F)(F)O3)c1` (single isomer, unassigned) [Example 781] reads > 50 nM.
As for `CCC(CC(=O)O)c1cc(NC(=O)Nc2ccc(C)cc2)c(N(CC(C)C)CC(C)C)cc1F` (single isomer, unassigned) [Example 1129, 3-(4-(Diisobutylamino)-2-fluoro-5-(3-(p-tolyl)ureido)phenyl)pentanoic acid], the IC50 was < 5 nM.
In the case of `CC[C@@H](CC(=O)O)c1ccc(N(CC)C2CCOCC2)c(NC(=O)Nc2ccc3c(c2)CS(=O)(=O)C3)c1` (single isomer, unassigned) [Example 496], the half-inhibitory concentration (IC50) was > 50 nM.
For `CC[C@@H](CC(=O)O)c1ccc(N(CC)C2CCOCC2)c(NC(=O)Nc2ccc(F)cc2)c1` (single isomer, unassigned) [Example 490], the half-inhibitory concentration (IC50) is < 50 nM.
As to `CCC(CC(=O)O)c1ccc(N(CC(C)C)C2CCCCC2)c(NC(=O)Cc2ccc(Cl)cc2F)c1` (single isomer, unassigned) [Example 1096 E1], the 50% inhibitory concentration (IC50) is < 5 nM.
On to `COCC(CC(=O)O)c1cc(F)c(N(CC(C)C)CC(C)C)c(NC(=O)Cc2ccc(Cl)cc2F)c1` (single isomer, unassigned) [Example 1180, 3-(3-(2-(4-Chloro-2-fluorophenyl)acetamido)-4-(diisobutylamino)-5-fluorophenyl)-4-methoxybutanoic acid], for which the IC50 is < 5 nM.
Consider `CC[C@H](CC(=O)O)c1ccc(N(CC(C)C)C2CCS(=O)(=O)CC2)c(NC(=O)Nc2cc(C)on2)c1` (single isomer, unassigned) [Example 213], for which the half-maximal inhibitory concentration (IC50) is > 50 nM.
The result for `CCC(CC(=O)O)c1ccc(N2CCOC[C@H]2C(C)C)c(NC(=O)Nc2cc(C)on2)c1` (single isomer, unassigned) [Example 898] reads > 50 nM; that for `CCC(CC(=O)O)c1ccc(N2CCC[C@@H]2C(C)(C)O)c(Nc2ccc(Cl)cc2)c1` (single isomer, unassigned) [Example 773], < 50 nM; that for `CCOc1ncc(Nc2cc([C@@H](CC)CC(=O)O)ccc2N(CC2CC2)CC(C)(C)O)cn1` (single isomer, unassigned) [Example 270], > 50 nM.
The result for `CCOc1ncc(Nc2cc([C@H](CC)CC(=O)O)ccc2N(CC)C2CCOCC2)cn1` (single isomer, unassigned) [Example 498] reads < 5 nM.
The result for `CCN(c1ccc(C(CC(=O)O)c2ccccc2)cc1Nc1ccc(Cl)cc1)C1CCOCC1` (single isomer, unassigned) [Example 590, 3-(3-((4-chlorophenyl)amino)-4-(ethyl(tetrahydro-2H-pyran-4-yl)amino)phenyl)-3-phenylpropanoic acid] reads < 50 nM; that for `CC[C@@H](CC(=O)O)c1ccc(N2CCC[C@H]2C(C)(C)F)c(NC(=O)Nc2ccc(C)cc2)c1` (single isomer, unassigned) [Example 785], > 50 nM.
With `CC(CC(=O)O)c1ccc(N2C[C@@H](C)O[C@@H](C)C2)c(Nc2ccc(C#N)cc2)c1` (single isomer, unassigned) [Example 737], the IC50 is > 50 nM.
On to `CCC(CC(=O)O)c1cc(F)c(N(CC(C)C)CC(C)C)c(NC(=O)Nc2cc(C(C)(C)C)on2)c1` (racemic) [Example 971, (+/−)-3-(3-(3-(5-(tert-Butyl)isoxazol-3-yl)ureido)-4-(diisobutylamino)-5-fluorophenyl)pentanoic acid, TFA], for which the IC50 is > 50 nM.
For the compound `CCC(CC(=O)O)c1ccc(N2CCOC[C@H]2C(C)C)c(Nc2ccc(C#N)cc2)c1` (single isomer, unassigned) [Example 899], the IC50 is < 5 nM.
For the compound `CCC(CC(=O)O)c1ccc(N2CCOC[C@H]2C(C)C)c(Nc2ccc(F)cc2)c1` (single isomer, unassigned) [Example 901], the half-maximal inhibitory concentration (IC50) was < 5 nM.
Consider `CCC(CC(=O)O)c1ccc(N2CCOC[C@H]2C(C)C)c(Nc2ccc3c(c2)OC(F)(F)O3)c1` (single isomer, unassigned) [Example 893], for which the IC50 was > 50 nM.
As for `COCC(CC(=O)O)c1ccc(N(CC(C)C)C2CCCCC2)c(NC(=O)Nc2ccc(Cl)cc2F)c1` (racemic) [Example 984, (+/−)-3-(3-(3-(4-Chloro-2-fluorophenyl)ureido)-4-(cyclohexyl(isobutyl)amino)phenyl)-4-methoxybutanoic acid], the IC50 is < 5 nM.
Turning to `CC(CC(=O)O)c1ccc(N2C[C@@H](C)O[C@@H](C)C2)c(Nc2ccc(F)cc2)c1` (single isomer, unassigned) [Example 738], the half-maximal inhibitory concentration (IC50) is > 50 nM.
In the case of `Cc1cc(NC(=O)Nc2cc(C(CC(=O)O)C3CC3)ccc2N(CC(C)C)C2CCOCC2)no1` (single isomer, unassigned) [Example 1201 Enantiomer 1, 3-Cyclopropyl-3-(4-(isobutyl(tetrahydro-2H-pyran-4-yl)amino)-3-(3-(5-methylisoxazol-3-yl)ureido)phenyl)propanoic acid], the IC50 was < 50 nM.
The result for `COCC(CC(=O)O)c1cc(F)c(N(CC(C)C)CC(C)C)c(NC(=O)Nc2cc(C)on2)c1` (single isomer, unassigned) [Example 1184, 3-(4-(Diisobutylamino)-3-fluoro-5-(3-(5-methylisoxazol-3-yl)ureido)phenyl)-4-methoxybutanoic acid] reads < 50 nM; that for `CCC(CC(=O)O)c1ccc(N(CC2CC2)C2CCOCC2)c(NC(=O)Nc2cc(C)on2)c1` (single isomer, unassigned) [Example 697, 3-(4-((Cyclopropylmethyl)(tetrahydro-2H-pyran-4-yl)amino)-3-(3-(5-methylisoxazol-3-yl)ureido)phenyl)pentanoic acid], > 50 nM; that for `CCOc1ccc(CC(=O)Nc2cc(C(COC)CC(=O)O)cc(F)c2N(CC(C)C)C2CCCCC2)cc1` (single isomer, unassigned) [Example 1168, 3-(4-(cyclohexyl(isobutyl)amino)-3-(2-(4-ethoxyphenyl)acetamido)-5-fluorophenyl)-4-methoxybutanoic acid], < 50 nM.
For the compound `CC[C@@H](CC(=O)O)c1ccc(N(CC)C2CCCCC2)c(Nc2ccc(OC(F)F)cc2)c1` (single isomer, unassigned) [Example 284], the IC50 is < 5 nM.
The result for `COC(Cc1ccc(N(CC(C)C)C2CCCCC2)c(NC(=O)Nc2ccc(Cl)cc2F)c1)C(=O)O` (stereo not shown) [Example 1012, 3-(3-(3-(4-Chloro-2-fluorophenyl)ureido)-4-(cyclohexyl(isobutyl)amino)phenyl)-2-methoxypropanoic acid] reads < 50 nM; that for `CCOc1ccc(NC(=O)Nc2cc(C(COC)CC(=O)O)ccc2N(CC(C)C)C2CCCCC2)c(F)c1` (single isomer, unassigned) [Example 1232, 3-(4-(Cyclohexyl(isobutyl)amino)-3-(3-(4-ethoxy-2-fluorophenyl)ureido)phenyl)-4-methoxybutanoic acid], < 50 nM.
Consider `CCC(CC(=O)O)c1cc(F)c(N(CC(C)C)CC(C)C)c(NC(=O)Cc2ccc(C)cc2F)c1` (single isomer, unassigned) [Example 1094 E2], for which the 50% inhibitory concentration (IC50) is < 5 nM.
